{
  "source": "patent US11696917B2",
  "about": "“Agent enhancing antitumor effect using pyrazolo[3,4-d]pyrimidine compound” (TAIHO PHARMACEUTICAL CO., LTD., priority 2017, dated 2023)",
  "system": "human stomach cancer cell line NCI-N87",
  "test": "Combination of Compound 1 and capecitabine (in vivo), subcutaneous tumor in nude mice",
  "set-up": "species or system nude mouse (BALB/cAJcl-nu/nu)",
  "conditions": "for T/C (%): Day 15",
  "protocol": "A human stomach cancer cell line NCI-N87 was obtained from American Type Culture Collection (ATCC). The cell line was cultured at 37° C. in a 5% CO2 incubator using RPMI-1640 (containing 4.5 g/L glucose, 10 mM HEPES, and 1 mM sodium pyruvate) (Wako Pure Chemical Industries, Ltd.) medium containing 10% fetal bovine serum (FBS).\nThe NCI-N87 cells were resuspended at a concentration of 8×10^7 cells/mL in PBS.\nThe cell suspension was subcutaneously transplanted in an amount of 8×10^6 cells/0.1 mL to the right chest of a 6-week-old nude mouse (BALB/cAJcl-nu/nu, CLEA Japan, Inc.) using a 1 mL syringe for tuberculin and a 25 G injection needle.\nElectronic calipers were used in tumor size measurement.",
  "key": {"[1]": {"conditions": "Capecitabine 359 mg/kg/day p.o. Days 1-14"}, "[2]": {"conditions": "Capecitabine 809 mg/kg/day p.o. Days 1-14"}},
  "data": [
    {"smiles": "CCCCCOC(=O)Nc1nc(=O)n([C@@H]2O[C@H](C)[C@@H](O)[C@H]2O)cc1F", "note": "[Capecitabine, capecitabine]", "values": [
      {"measurement": "BWC (%) Day 15 Mean", "setting": "[1]", "value": 7.51, "unit": "%"},
      {"measurement": "RTV Day 15 Mean ± SD", "setting": "[1]", "value": "1.26 ± 0.21"},
      {"measurement": "T/C (%)", "setting": "[1]", "value": 30.4, "unit": "%"},
      {"measurement": "BWC (%) Day 15 Mean", "setting": "[2]", "value": "−5.30", "unit": "%"},
      {"measurement": "RTV Day 15 Mean ± SD", "setting": "[2]", "value": "1.12 ± 0.18"},
      {"measurement": "T/C (%)", "setting": "[2]", "value": 27.1, "unit": "%"},
      {"measurement": "RTV on Day 15 compared with the control group (in words)", "setting": "Dunnett's test", "value": "significantly lower"}
    ]}
  ]
}
